Source: ChEMBL document CHEMBL5113492, “Design, synthesis, and biological evalution of bifunctional inhibitors against Hsp90-HDAC6 interplay” (Eur J Med Chem, 2022)
The source made the active and inactive calls. The rule behind the calls is not given here.

How the values were obtained:
NCI-H1975 [1] = experiment: Induction of apoptosis in human NCI-H1975 cells assessed as caspase-8 cleavage at 0.05 to 2 uM incubated for 24 hrs by western blot analysis; type: functional, cell-based; conditions: dose 0.05-2 µM, DDE = dose-dependent effect
[2] = biological target: T1, Protein deacetylase HDAC6 (Homo sapiens) (UniProt Q9UBN7); experiment: Inhibition of HDAC6 in human NCI-H1975 cells assessed as increase in acetylation of HSP90 at 2 uM incubated for 24 hrs by western blot analysis; type: cell-based
T1 sequence (whole entry): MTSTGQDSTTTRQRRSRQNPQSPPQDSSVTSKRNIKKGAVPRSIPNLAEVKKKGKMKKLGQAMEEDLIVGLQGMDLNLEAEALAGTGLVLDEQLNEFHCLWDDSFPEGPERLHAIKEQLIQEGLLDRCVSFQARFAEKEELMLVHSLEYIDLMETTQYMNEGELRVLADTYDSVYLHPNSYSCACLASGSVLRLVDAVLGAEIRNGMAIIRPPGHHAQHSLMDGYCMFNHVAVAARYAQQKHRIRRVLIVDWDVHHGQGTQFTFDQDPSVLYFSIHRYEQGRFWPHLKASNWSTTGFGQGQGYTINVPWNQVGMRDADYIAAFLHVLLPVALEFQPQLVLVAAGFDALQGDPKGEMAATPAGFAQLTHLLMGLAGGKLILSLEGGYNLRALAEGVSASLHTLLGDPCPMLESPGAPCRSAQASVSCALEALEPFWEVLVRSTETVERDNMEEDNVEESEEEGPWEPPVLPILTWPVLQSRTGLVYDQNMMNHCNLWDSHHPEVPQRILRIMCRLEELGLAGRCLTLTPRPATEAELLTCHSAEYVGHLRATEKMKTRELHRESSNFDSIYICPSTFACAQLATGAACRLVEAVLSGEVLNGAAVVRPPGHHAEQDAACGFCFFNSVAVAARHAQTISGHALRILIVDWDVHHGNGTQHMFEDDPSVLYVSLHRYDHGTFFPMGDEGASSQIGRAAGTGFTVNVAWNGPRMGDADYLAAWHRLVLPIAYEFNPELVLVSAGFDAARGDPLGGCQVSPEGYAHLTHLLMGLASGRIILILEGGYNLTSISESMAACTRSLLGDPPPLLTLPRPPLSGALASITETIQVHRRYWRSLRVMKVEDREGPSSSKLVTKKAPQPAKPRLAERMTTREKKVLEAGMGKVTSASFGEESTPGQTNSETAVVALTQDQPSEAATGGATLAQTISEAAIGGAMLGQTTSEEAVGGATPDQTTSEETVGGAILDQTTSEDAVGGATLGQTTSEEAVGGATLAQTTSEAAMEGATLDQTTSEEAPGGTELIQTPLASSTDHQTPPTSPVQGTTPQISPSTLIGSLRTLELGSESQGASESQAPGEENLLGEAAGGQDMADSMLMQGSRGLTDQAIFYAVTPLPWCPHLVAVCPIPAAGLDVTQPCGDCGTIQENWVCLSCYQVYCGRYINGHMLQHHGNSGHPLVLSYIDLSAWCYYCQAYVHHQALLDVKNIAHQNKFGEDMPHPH

NCI-H1975 [3] = experiment: Antitumor activity against NSG mouse xenografted with human NCI-H1975 cells assessed as reduction on tumor growth at 50 mg/kg,ip measured after 6 weeks; type: functional, organism-based
Mus musculus [4] = experiment: In vivo inhibition of HSP90 in human NCI-H1975 cells xenografted with NSG mouse assessed as downregulation of EGFR expression at 25 mg/kg,ip measured after 6 weeks by immunohistochemistry analysis; type: functional, organism-based
NCI-H1975 [5] = experiment: Antiproliferative activity against human NCI-H1975 cells assessed as growth inhibition incubated upto 72 hrs by CellTiter96 Aqueous One Solution Cell Proliferation assay; type: functional
[6] = biological target: T2, Heat shock protein HSP90 (Homo sapiens) (UniProt P07900+P08238); experiment: Inhibition of HSP90 in human NCI-H1975 cells assessed as downregulation of EGFR expression at 2 uM incubated for 24 hrs by western blot analysis; type: cell-based
[7] = Toxicity in NSG mouse xenografted with human NCI-H1975 cells assessed as abnormal behavior at 50 mg/kg,ip measured after 6 weeks; type: organism-based; conditions: in vivo, 1008 h
[8] = biological target: T2, Heat shock protein HSP90 (Homo sapiens); experiment: Inhibition of HSP90 in human NCI-H1975 cells assessed as downregulation of Her2 expression at 2 uM incubated for 24 hrs by western blot analysis; type: cell-based
[9] = biological target: T2, Heat shock protein HSP90 (Homo sapiens); experiment: Inhibition of HSP90 in human NCI-H1975 cells assessed as downregulation of Akt expression at 2 uM incubated for 24 hrs by western blot analysis; type: cell-based
NCI-H1975 [10] = experiment: Induction of apoptosis in human NCI-H1975 cells assessed as PARP cleavage at 0.05 to 2 uM incubated for 24 hrs by western blot analysis; type: functional, cell-based; conditions: dose 0.05-2 µM, DDE = dose-dependent effect
NCI-H1975 [11] = experiment: Induction of apoptosis in human NCI-H1975 cells assessed as late apoptotic cells at 2 uM incubated for 24 hrs by Annexin-V/propidium iodide staining based flow cytometry analysis; type: functional
Histone deacetylase 3 = Histone deacetylase 3 (Homo sapiens, UniProt O15379); experiment: Inhibition of HDAC3 (unknown origin) using fluorogenic substrate incubated for 30 mins by fluorescence plate reader
[12] = Toxicity in NSG mouse xenografted with human NCI-H1975 cells assessed as change in number of retina at 25 mg/kg,ip measured after 6 weeks by H and E staining based assay; type: organism-based; conditions: in vivo, 1008 h
Mus musculus [13] = experiment: In vivo inhibition of HSP90 in human NCI-H1975 cells xenografted with NSG mouse assessed as downregulation of EGFR expression at 50 mg/kg,ip measured after 6 weeks by immunohistochemistry analysis; type: functional, organism-based
NCI-H1975 [14] = experiment: Induction of apoptosis in human NCI-H1975 cells assessed as caspase-3 cleavage at 0.05 to 2 uM incubated for 24 hrs by western blot analysis; type: functional, cell-based; conditions: dose 0.05-2 µM, DDE = dose-dependent effect
[15] = biological target: T2, Heat shock protein HSP90 (Homo sapiens); experiment: Inhibition of HSP90 in human NCI-H1975 cells assessed as downregulation of Her2 expression at 0.05 to 2 uM incubated for 24 hrs by western blot analysis; type: cell-based; conditions: dose 0.05-2 µM, DDE = dose-dependent effect
[16] = biological target: Histone deacetylase 1 (Homo sapiens) (UniProt Q13547); experiment: Inhibition of HDAC1 in human NCI-H1975 cells assessed as increase in acetylation of Histone H3 at 2 uM incubated for 24 hrs by western blot analysis; type: cell-based
[17] = biological target: T2, Heat shock protein HSP90 (Homo sapiens); experiment: Inhibition of HSP90 in human NCI-H1975 cells assessed as upregulation of HSP70 expression at 0.05 to 2 uM incubated for 24 hrs by western blot analysis; type: cell-based; conditions: dose 0.05-2 µM, DDE = dose-dependent effect
[18] = Toxicity in NSG mouse xenografted with human NCI-H1975 cells assessed as change in body weight at 25 mg/kg,ip measured after 6 weeks; type: organism-based; conditions: in vivo, 1008 h
[19] = Toxicity in NSG mouse xenografted with human NCI-H1975 cells assessed as change in body weight at 50 mg/kg,ip measured after 6 weeks; type: organism-based; conditions: in vivo, 1008 h
[20] = biological target: T1, Protein deacetylase HDAC6 (Homo sapiens); experiment: Inhibition of HDAC6 in human NCI-H1975 cells assessed as increase in acetylation of HSP90-Lys 294 residue at 2 uM incubated for 24 hrs by western blot analysis; type: cell-based
[21] = Toxicity in NSG mouse xenografted with human NCI-H1975 cells assessed as abnormal behavior at 25 mg/kg,ip measured after 6 weeks; type: organism-based; conditions: in vivo, 1008 h

Sequence of Histone deacetylase 3 (O15379 whole entry): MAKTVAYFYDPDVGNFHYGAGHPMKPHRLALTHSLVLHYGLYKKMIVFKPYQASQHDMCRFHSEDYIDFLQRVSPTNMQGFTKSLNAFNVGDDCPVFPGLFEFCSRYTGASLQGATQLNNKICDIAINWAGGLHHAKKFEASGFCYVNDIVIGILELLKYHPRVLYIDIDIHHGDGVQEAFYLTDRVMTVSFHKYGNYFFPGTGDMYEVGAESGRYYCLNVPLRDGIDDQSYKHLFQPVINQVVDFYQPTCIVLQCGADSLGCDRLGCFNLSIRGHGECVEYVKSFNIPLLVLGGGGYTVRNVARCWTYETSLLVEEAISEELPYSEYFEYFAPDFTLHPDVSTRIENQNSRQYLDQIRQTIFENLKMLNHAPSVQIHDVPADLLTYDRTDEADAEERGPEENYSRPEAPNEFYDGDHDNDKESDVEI
Sequence of Histone deacetylase 1 (Homo sapiens) (Q13547 whole entry): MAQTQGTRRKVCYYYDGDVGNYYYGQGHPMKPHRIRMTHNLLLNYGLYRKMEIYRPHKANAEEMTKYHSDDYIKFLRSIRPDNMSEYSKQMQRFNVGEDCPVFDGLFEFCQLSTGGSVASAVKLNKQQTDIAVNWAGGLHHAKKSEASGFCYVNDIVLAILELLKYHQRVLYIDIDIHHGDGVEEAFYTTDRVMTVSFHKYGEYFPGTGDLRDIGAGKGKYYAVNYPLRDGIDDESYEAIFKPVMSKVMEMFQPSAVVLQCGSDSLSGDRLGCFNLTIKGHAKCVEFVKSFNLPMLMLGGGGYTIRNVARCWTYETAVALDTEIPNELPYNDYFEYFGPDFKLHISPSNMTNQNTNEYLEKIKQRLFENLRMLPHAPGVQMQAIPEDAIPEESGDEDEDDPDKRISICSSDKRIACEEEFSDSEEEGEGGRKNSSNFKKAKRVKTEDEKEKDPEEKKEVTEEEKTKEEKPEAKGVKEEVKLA

## CC(C)c1cc(C(=O)N(C)Cc2ccc(C(=O)NO)cc2)c(O)cc1O
NCI-H1975 [1]
  Activity: Dde
[2]
  inhibition: Active
NCI-H1975 [3]
  Activity: Active
Mus musculus [4]
  inhibition: Active
NCI-H1975 [5]
  GI50: 1.7 µM
[6]
  inhibition: Active
[7]
  Activity: Non-Toxic
[8]
  inhibition: Active
[9]
  inhibition: Active
NCI-H1975 [10]
  Activity: Dde
NCI-H1975 [11]
  Activity: 9.01%
Histone deacetylase 3
  IC50: 1.54 µM
[12]
  Activity: Non-Toxic
Mus musculus [13]
  inhibition: Active
NCI-H1975 [14]
  Activity: Dde
[15]
  inhibition: Dde
[16]
  inhibition: Active
[17]
  inhibition: Dde
[18]
  Activity: Non-Toxic
[19]
  Activity: Non-Toxic
[20]
  inhibition: Active
[21]
  Activity: Non-Toxic
